Drawing on article PMC6532652, “Enantiospecific Synthesis, Chiral Separation, and Biological Activity of Four Indazole-3-Carboxamide-Type Synthetic Cannabinoid Receptor Agonists and Their Detection in Seized Drug Samples” (Frontiers in Chemistry, 2019), this text covers EC50 for 9 compounds.

For one test, the target named is T1, CB2 (Homo sapiens, UniProt P34972).
T1 construct: gene CNR2; co-expressed with beta-arrestin 2 fused to the complementary fragment
The test is described as follows: NanoLuc complementation beta-arrestin […] recruitment, live cells. The settings on record: read-out: CB2 / EC50 (nM) (± 95% CI). Format: cell-based.

Another test concerns the target T2, CB1 (Homo sapiens, UniProt P21554).
T2 construct: gene CNR1; co-expressed with beta-arrestin 2 fused to the complementary fragment
The test is described as above. Format: cell-based. As to conditions: read-out: CB1 / EC50 (nM) (± 95% CI).

T2 sequence (P21554 whole entry, the tested form may be a part): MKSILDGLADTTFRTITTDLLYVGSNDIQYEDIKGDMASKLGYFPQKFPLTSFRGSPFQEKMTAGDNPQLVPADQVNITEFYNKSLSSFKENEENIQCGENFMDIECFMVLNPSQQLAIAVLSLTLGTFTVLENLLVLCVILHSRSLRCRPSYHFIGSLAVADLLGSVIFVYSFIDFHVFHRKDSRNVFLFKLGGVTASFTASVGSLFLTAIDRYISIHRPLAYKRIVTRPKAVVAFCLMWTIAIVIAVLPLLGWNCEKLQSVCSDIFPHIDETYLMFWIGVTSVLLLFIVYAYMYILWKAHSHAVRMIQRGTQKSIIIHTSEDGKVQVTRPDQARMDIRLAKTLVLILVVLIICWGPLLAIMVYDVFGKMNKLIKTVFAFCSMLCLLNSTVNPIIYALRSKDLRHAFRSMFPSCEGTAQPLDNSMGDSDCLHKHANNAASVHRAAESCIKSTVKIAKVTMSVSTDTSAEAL
T1 sequence (P34972 whole entry, the tested form may be a part): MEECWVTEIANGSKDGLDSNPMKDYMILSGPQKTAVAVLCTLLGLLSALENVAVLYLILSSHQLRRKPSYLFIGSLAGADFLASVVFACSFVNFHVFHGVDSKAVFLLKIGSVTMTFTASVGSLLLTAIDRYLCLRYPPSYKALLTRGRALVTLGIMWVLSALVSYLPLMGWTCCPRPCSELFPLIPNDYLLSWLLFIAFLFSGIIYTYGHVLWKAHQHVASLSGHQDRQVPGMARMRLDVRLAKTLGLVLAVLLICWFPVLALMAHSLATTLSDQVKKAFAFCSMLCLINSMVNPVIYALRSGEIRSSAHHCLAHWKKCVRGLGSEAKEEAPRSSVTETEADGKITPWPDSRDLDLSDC

Consider `COC(=O)[C@H](NC(=O)c1nn(CCCCCF)c2ccccc12)C(C)(C)C` [compound 3, (R)-5F-MDMB-PINACA], for which the results for the EC50 on CB2 and on CB1 were 6.87 nM and 131 nM, respectively.

`COC(=O)[C@@H](NC(=O)c1nn(CCCCCF)c2ccccc12)C(C)(C)C` [compound 3, (S)-5F-MDMB-PINACA]: the EC50 on CB2 amounted to 1.46 nM; on CB1, 1.78 nM.

With `CCCCCn1cc(C(=O)c2cccc3ccccc23)c2ccccc21` [compound 19, JWH-018, reference compound], the EC50 at CB2 was determined as 9.71 nM; on CB1, 45.1 nM.

Regarding `CC(C)[C@@H](NC(=O)c1nn(CC2CCCCC2)c2ccccc12)C(N)=O` [compound 4, (R)-AB-CHMINACA], the EC50 on CB2 was determined as 33.6 nM; at CB1, 319 nM.

Consider `COC(=O)[C@H](NC(=O)c1nn(Cc2ccc(F)cc2)c2ccccc12)C(C)C` [compound 2, (R)-AMB-FUBINACA], for which the EC50 on CB2 turned out to be 1.19 nM; at CB1 it was 55.8 nM.

On to `CC(C)[C@H](NC(=O)c1nn(Cc2ccc(F)cc2)c2ccccc12)C(N)=O` [compound 1, N-(2S)-(1-amino-3-methyl-1-oxobutan-2-yl)-1-(4-fluorobenzyl)-1H-indazole-3-carboxamide], for which the results for the EC50 on CB2 and at CB1 were 1.6 nM and 12.9 nM, respectively.

As to `CC(C)[C@@H](NC(=O)c1nn(Cc2ccc(F)cc2)c2ccccc12)C(N)=O` [compound 1, (R)-AB-FUBINACA], the results for the EC50 at CB2 and on CB1 were 102 nM and 1480 nM, respectively.

In the case of `COC(=O)[C@@H](NC(=O)c1nn(Cc2ccc(F)cc2)c2ccccc12)C(C)C` [compound 2, methyl (2S)-2-(1-(4-fluorobenzyl)-1H-indazole-3-carboxamido)-3-methylbutanoate], the EC50 on CB2 worked out at 0.77 nM; at CB1, 9.11 nM.

For the compound `CC(C)[C@H](NC(=O)c1nn(CC2CCCCC2)c2ccccc12)C(N)=O` [compound 4, N-(2S)-(1-amino-3-methyl-1-oxobutan-2-yl)-1-(cyclohexylmethyl)-1H-indazole-3-carboxamide], the EC50 on CB2 was found to be 1.75 nM; on CB1, 6.16 nM.
